One block for each compound: values may come before it.
How the values were obtained:
[1] = Inhibition of soybean 5-LOX using linoleic acid as substrate preincubated for 5 mins followed by substrate addition and measured after 3 mins; design: species or system Glycine max
[2] = target: T1, Prostaglandin G/H synthase 2 (Homo sapiens, UniProt P35354); experiment: Inhibition of human COX-2 using arachidonic acid as substrate incubated for 30 secs by ELISA
T1 sequence (P35354 whole entry): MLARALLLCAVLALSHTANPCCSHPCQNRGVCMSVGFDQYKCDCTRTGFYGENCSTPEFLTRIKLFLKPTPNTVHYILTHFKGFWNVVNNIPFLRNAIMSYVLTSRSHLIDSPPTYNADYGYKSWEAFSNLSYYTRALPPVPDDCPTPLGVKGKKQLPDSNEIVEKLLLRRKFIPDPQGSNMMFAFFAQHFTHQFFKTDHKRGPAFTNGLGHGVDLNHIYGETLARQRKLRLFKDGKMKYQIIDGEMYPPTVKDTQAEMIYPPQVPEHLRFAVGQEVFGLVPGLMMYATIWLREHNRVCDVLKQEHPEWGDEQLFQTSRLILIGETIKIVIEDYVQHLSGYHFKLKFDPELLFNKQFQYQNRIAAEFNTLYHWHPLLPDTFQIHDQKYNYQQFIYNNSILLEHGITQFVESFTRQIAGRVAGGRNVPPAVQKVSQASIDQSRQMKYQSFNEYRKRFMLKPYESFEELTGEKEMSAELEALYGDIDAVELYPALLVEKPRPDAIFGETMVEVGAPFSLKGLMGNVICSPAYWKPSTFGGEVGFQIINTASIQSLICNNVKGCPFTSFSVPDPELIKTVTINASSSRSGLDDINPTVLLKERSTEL

[3] = target: COX-1/COX-2 (Homo sapiens) (UniProt P35354+P23219); experiment: Selectivity index, ratio of IC50 for inhibition of COX-1 (unknown origin) to IC50 for inhibition of COX-2 (unknown origin); assay type: protein assay
[4] = target: T1, Prostaglandin G/H synthase 2; experiment: Inhibition of human COX-2 using arachidonic acid as substrate preincubated for 10 mins followed by substrate addition and measured after 30 secs by ELISA
[5] = target: T2, Polyunsaturated fatty acid 5-lipoxygenase (Homo sapiens, UniProt P09917); experiment: Inhibition of 5-LOX (unknown origin)
T2 sequence (P09917 whole entry): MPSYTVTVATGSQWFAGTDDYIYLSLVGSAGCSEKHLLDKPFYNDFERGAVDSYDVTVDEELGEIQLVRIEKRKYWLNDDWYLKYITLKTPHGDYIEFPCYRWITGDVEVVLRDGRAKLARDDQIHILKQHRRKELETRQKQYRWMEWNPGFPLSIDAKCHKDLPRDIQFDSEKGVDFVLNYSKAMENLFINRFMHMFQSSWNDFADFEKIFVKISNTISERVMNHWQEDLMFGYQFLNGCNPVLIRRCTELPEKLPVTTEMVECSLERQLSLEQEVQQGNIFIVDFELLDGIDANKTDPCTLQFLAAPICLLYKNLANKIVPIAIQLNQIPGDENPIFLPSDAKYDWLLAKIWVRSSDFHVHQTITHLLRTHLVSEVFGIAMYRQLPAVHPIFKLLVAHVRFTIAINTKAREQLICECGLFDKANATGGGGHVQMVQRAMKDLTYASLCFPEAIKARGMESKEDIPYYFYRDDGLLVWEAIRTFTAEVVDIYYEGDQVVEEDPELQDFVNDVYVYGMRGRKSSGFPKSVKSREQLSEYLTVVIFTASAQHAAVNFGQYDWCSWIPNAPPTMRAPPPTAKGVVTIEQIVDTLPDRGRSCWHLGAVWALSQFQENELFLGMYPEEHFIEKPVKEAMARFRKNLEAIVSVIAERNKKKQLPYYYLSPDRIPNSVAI

[6] = target: T1, Prostaglandin G/H synthase 2; experiment: Inhibition of COX-2 (unknown origin)

IC50 [1]: 48900 nM
SMILES: COC(=O)/C(=C/c1ccccc1)NC(=O)[C@H](Cc1ccc(O)cc1)NC(=O)[C@@H](C)c1ccc2cc(OC)ccc2c1

IC50 [2]: 3320 nM
Ratio IC50 [3]: 0.008
SMILES: NS(=O)(=O)c1ccc(-n2cc(-c3ccc(C(F)(F)F)cc3)nn2)cc1

SMILES: O=c1[nH]n2c(=O)c3ccccc3nc2/c1=C/c1ccc(Br)cc1
IC50 [4]: 47 nM
IC50 [5]: 600 nM

IC50 [2]: 2 nM
Ratio IC50 [3]: 0.008
SMILES: CS(=O)(=O)c1ccc(C(=O)OCCn2cc(-c3ccc(C(F)(F)F)cc3)nn2)cc1

IC50 [4]: 47 nM
IC50 [5]: 600 nM
SMILES: O=c1[nH]n2c(=O)c3ccccc3nc2/c1=C/c1cccc(F)c1

IC50 [4]: 47 nM
IC50 [5]: 600 nM
SMILES: COc1ccc(/C=c2\c(=O)[nH]n3c(=O)c4ccccc4nc23)cc1

IC50 [4]: 47 nM
IC50 [5]: 600 nM
SMILES: O=c1[nH]n2c(=O)c3ccccc3nc2/c1=C/c1ccc(F)cc1

IC50 [4]: 47 nM
IC50 [5]: 600 nM
SMILES: O=c1[nH]n2c(=O)c3ccccc3nc2/c1=C/c1ccccc1F

IC50 [1]: 48900 nM
SMILES: COc1ccc2cc([C@H](C)C(=O)N[C@@H](C)C(=O)N/C(=C\c3ccccc3)C(=O)O)ccc2c1

IC50 [1]: 22000 nM
SMILES: COc1ccc2cc([C@H](C)C(=O)O)ccc2c1 [NAPROXEN]

IC50 [2]: 226 nM
Ratio IC50 [3]: 0.008
SMILES: CS(=O)(=O)c1ccc(-n2cc(-c3ccc(C(F)(F)F)cc3)nn2)cc1

IC50 [4]: 47 nM
IC50 [5]: 600 nM
SMILES: COc1ccc(/C=c2\c(=O)[nH]n3c(=O)c4ccccc4nc23)cc1OC

IC50 [4]: 47 nM
IC50 [5]: 600 nM
SMILES: O=c1[nH]n2c(=O)c3ccccc3nc2/c1=C/c1ccc(Cl)cc1

IC50 [2]: 131 nM
Ratio IC50 [3]: 0.008
SMILES: NS(=O)(=O)c1ccc(C(=O)OCCn2cc(-c3ccc(C(F)(F)F)cc3)nn2)cc1

IC50 [2]: 17 nM
Ratio IC50 [3]: 0.008
SMILES: NS(=O)(=O)c1ccc(-c2nn(-c3ccc([N+](=O)[O-])cc3)cc2C=O)cc1

Ratio IC50 [3]: 1.95
IC50 [6]: 2610 nM
SMILES: CC(=O)N1N=C(c2nnn(-c3ccc(S(N)(=O)=O)cc3)c2C)CC1c1ccccc1 (centres undefined)

IC50 [4]: 47 nM
IC50 [5]: 600 nM
SMILES: COc1ccccc1/C=c1\c(=O)[nH]n2c(=O)c3ccccc3nc12

Ratio IC50 [3]: 1.95
IC50 [6]: 2610 nM
SMILES: C/C(=N\NC(=O)c1nnn(-c2ccc(S(N)(=O)=O)cc2)c1C)c1cc2ccccc2o1

Ratio IC50 [3]: 1.95
IC50 [6]: 2610 nM
SMILES: Cc1c(C(=O)/C=C/c2ccccc2)nnn1-c1ccc(S(N)(=O)=O)cc1

IC50 [5]: 600 nM
SMILES: COc1cc(/C=c2\c(=O)[nH]n3c(=O)c4ccccc4nc23)cc(OC)c1OC

Ratio IC50 [3]: 1.95
IC50 [6]: 2610 nM
SMILES: Cc1c(C2=NNC(c3ccccc3)C2)nnn1-c1ccc(S(N)(=O)=O)cc1 (centres undefined)

IC50 [1]: 48900 nM
SMILES: COc1ccc2cc([C@H](C)C(=O)N[C@@H](Cc3c[nH]c4ccccc34)C(=O)N/C(=C\c3ccccc3)C(=O)O)ccc2c1

Ratio IC50 [3]: 1.95
IC50 [6]: 2610 nM
SMILES: C/C(=N\NC(=O)c1nnn(-c2ccc(S(N)(=O)=O)cc2)c1C)c1nnn(-c2ccc(S(N)(=O)=O)cc2)c1C

IC50 [1]: 48900 nM
SMILES: COC(=O)/C(=C/c1ccccc1)NC(=O)[C@H](CC(=O)O)NC(=O)[C@@H](C)c1ccc2cc(OC)ccc2c1

IC50 [1]: 48900 nM
SMILES: COc1ccc2cc([C@H](C)C(=O)N[C@@H](Cc3ccc(O)cc3)C(=O)N/C(=C\c3ccccc3)C(=O)O)ccc2c1

Ratio IC50 [3]: 1.95
IC50 [6]: 2610 nM
SMILES: CC(=O)c1nnn(-c2ccc(S(N)(=O)=O)cc2)c1C

IC50 [1]: 48900 nM
SMILES: COc1ccc2cc([C@H](C)C(=O)N[C@@H](CCCCN)C(=O)N/C(=C\c3ccccc3)C(=O)O)ccc2c1

IC50 [4]: 47 nM
IC50 [5]: 600 nM
SMILES: O=c1[nH]n2c(=O)c3ccccc3nc2/c1=C/c1ccccc1

IC50 [1]: 48900 nM
SMILES: COc1ccc2cc([C@H](C)C(=O)N[C@@H](CCSC)C(=O)N/C(=C\c3ccccc3)C(=O)O)ccc2c1

Ratio IC50 [3]: 1.95
IC50 [6]: 2920 nM
SMILES: Cc1c(C(=O)NN)nnn1-c1ccc(S(N)(=O)=O)cc1

IC50 [1]: 48900 nM
SMILES: C/C=C(\NC(=O)[C@H](Cc1c[nH]c2ccccc12)NC(=O)[C@@H](C)c1ccc2cc(OC)ccc2c1)C(=O)OC

Ratio IC50 [3]: 1.95
IC50 [6]: 2610 nM
SMILES: Cc1c(C(=O)NNC(=S)Nc2ccccc2)nnn1-c1ccc(S(N)(=O)=O)cc1
